Data on six molecules can be found in article PMC13629022 (ACS Omega, 2026).

The test system of data set [1] is nitric oxide production by stimulated J774.A1 macrophages. The data set is described as follows: Nitric oxide production by LPS + IFN-γ stimulated J774.A1 macrophages (nitrite, Griess method). In kind it is cell-based, murine. The settings on record: Mus musculus. The protocol: (§1) For cytokine and nitric oxide evaluations, J774.A1 cells were seeded in 96-well tissue culture plates at 2 × 10^5 cells per well in DMEM supplemented with 10% FBS and 50 μg/mL gentamicin and incubated for 2 h at 37 °C in a 5% CO2 atmosphere, as previously described. Cells were then stimulated with LPS (500 ng/mL) and IFN-γ (5 ng/mL) in the presence of either the test compounds at different concentrations (3.9–250 μM), the medium alone, or dexamethasone (40 μM, reference drug) and further incubated at 37 °C. Cell-free supernatants were collected 24 h after incubation for IL-1β, IL-6, and nitrite quantification. Cytokine concentrations in the supernatants of J774.A1 cultures were determined by enzyme-linked immunosorbent assay (ELISA) using the DuoSet kit (R&D Systems, Minneapolis, MN, USA), according to the manufacturer’s instructions. Results were expressed as picograms per milliliter (pg/mL) of IL-1β or IL-6. Quantification of nitrite as an indicator of nitric oxide production was performed using the Griess method. Three independent experiments were performed. −
For orientation: The Griess reaction detects nitrite, a stable product of nitric oxide.

In data set [2] the test system is murine macrophage-like J774.A1 cells. Description: Cytotoxicity to J774.A1 macrophages (Alamar Blue). The following applies: concentrations up to 500 μM (compounds 7 and 13 up to 250 μM). The protocol:
Cells were incubated for 72 h at 37 °C in a 5% CO2 atmosphere, as previously described. They were then stimulated with LPS (500 ng/mL, Sigma Chemical Co., St. Louis, MO, USA) and IFN-γ (5 ng/mL, Sigma). Compounds were added to the medium at eight concentrations ranging from 1.9 to 500 μM, in triplicate, and incubated for 24 h. Subsequently, 20 μL per well of Alamar Blue (Invitrogen, Carlsbad, CA, USA) was added to the plates for 6 h. Compounds 7, 11, and 13 were evaluated only up to a maximum concentration of 250 μM due to the limited amount of purified material available for testing. Colorimetric readings were performed at 570 and 600 nm. Triton X-100 (5%) was used as the positive control.

In data set [3] the test system is IL-1β production by stimulated J774.A1 macrophages. Description: IL-1β production by LPS + IFN-γ stimulated J774.A1 macrophages (ELISA). It counts as cell-based, murine. The settings on record: compounds at 62.5 μM, Dexa 40 μM, 24 h, vs stimulated untreated cells, p < 0.05. The method, then:
as §1, with “Cells” for “For cytokine and nitric oxide evaluations, J774.A1 cells were seeded in 96-well tissue culture plates at 2 × 10^5 cells per well in DMEM supplemented with 10% FBS and 50 μg/mL gentamicin and incubated for 2 h at 37 °C in a 5% CO2 atmosphere, as previously described. Cells”
On the technique in general: An ELISA detects its analyte on a solid surface through an enzyme-linked reagent.

Setting [4] is: J774.A1, 24 h, read-out: efficacy: maximum effect (% of the maximum possible effect), inhibition of NO production, J774.A1 macrophages stimulated with LPS + IFN-γ, 24 h.
Where [5] appears, read: J774.A1, 24 h, read-out: IC50, half maximal inhibitory concentration, NO production, J774.A1 macrophages stimulated with LPS (500 ng/mL) + IFN-γ (5 ng/mL), 24 h, nitrite by Griess.
Setting [6] is: J774.A1, read-out: IC50 (in Figure 8 panels), nitric oxide production, Figure 8, no unit in the boxes, μM only in axis labels, LPS + IFN-γ stimulated J774.A1.

Like-named read-outs stand apart in the source and are kept apart here.

Consider `COC1CC(OC2CCC3(C)C(CCC4(O)C3CC(OC(=O)C=Cc3ccccc3)C3(C)C(C(C)O)CCC43O)C2)OC(C)C1OC1CC(OC)C(OC2OC(C)C(OC3OC(CO)C(OC4OC(CO)C(O)C(O)C4O)C(O)C3O)C(OC)C2O)C(C)O1` [Compound 6, 12-O-cinnamoyl-(20S)-5,6,17-trihydrosarcostin-3-O-β-D-glucopyranosyl-(1 → 4)-β-D glucopyranosyl-(1 → 4)-β-D-6-deoxy-3-O-methyl-allopyranosyl-(1 → 4)-β-D oleandropyranosyl-(1 → 4)-β-D-cymaropyranoside], for which, in data set [1] (setting [4]), the Emax was less than 50%. Also, the “cytotoxic effects in J774 macrophages (in words)” value (“cytotoxic effects” for short) in data set [2] is recorded as “did not induce cytotoxic effects”. Moreover, the “production of IL-1β (in words)” value in data set [3] is “did not reduce”.

`COC1CC(OC2C(C)OC(OC3CCC4(C)C(CCC5(O)C4CC(OC(=O)C=Cc4ccccc4)C4(C)C(C(C)O)CCC54O)C3)CC2OC(C)=O)OC(C)C1OC1OC(C)C(OC2OC(CO)C(OC3OC(CO)C(O)C(O)C3O)C(O)C2O)C(OC)C1O` [Compound 7, 12-O-cinnamoyl-(20S)-5,6,17-trihydrosarcostin-3-O-β-D-glucopyranosyl-(1 → 4)-β-D-glucopyranosyl-(1 → 4)-β-D-6-deoxy-3-O-methyl-allopyranosyl-(1 → 4)-β-D-oleandropyranosyl-(1 → 4)-β-D-3′-O-acetyl-cymaropyranoside]: the IC50 in data set [1] (setting [5]) is more than 100 µM. Besides, in data set [1] (setting [4]), the Emax was less than 50%. For the same molecule, the “cytotoxic effects” value in data set [2] is on record as “did not exhibit cytotoxicity at the concentrations tested”. In data set [3], the “production of IL-1β (in words)” value is “did not reduce”.

In the case of `COC1CC(OC2CCC3(C)C(=CCC4(O)C3CC(OC(=O)C=Cc3ccccc3)C3(C)C(C(C)O)CCC43O)C2)OC(C)C1OC1CC(OC)C(OC2OC(C)C(O)C(OC)C2O)C(C)O1` [Compound 11, 12-O-cinnamoyl-(20S)-17-hydrosarcostin-3-O-β-D-6-deoxy-3-O-methyl-allopyranosyl-(1 → 4)-β-D-oleandropyranosyl-(1 → 4)-β-D-cymaropyranoside], the IC50 in data set [1] (setting [5]) and in data set [1] (setting [6]) was 47.3 µM each time. The Emax in data set [1] (setting [4]) was 51.8%. Further, the “cytotoxic effects” value in data set [2] is on record as “most cytotoxic”. The “production of IL-1β (in words)” value in data set [3] was “significant reduction”.

In the case of `COC1CC(OC2C(O)CC(OC3CCC4(C)C(CCC5(O)C4CC(OC(=O)C=Cc4ccccc4)C4(C)C(C(C)O)CCC54O)C3)OC2C)OC(C)C1OC1OC(C)C(O)C(OC)C1O` [Compound 12, 12-O-cinnamoyl-(20S)-5,6,17-trihydrosarcostin-3-O-β-D-6-deoxy-3-O-methyl-allopyranosyl-(1 → 4)-β-D-oleandropyranosyl-(1 → 4)-β-D-digitoxopyranoside], the IC50 in data set [1] (setting [5]) is more than 100 µM. The Emax in data set [1] (setting [4]) was determined as 62%. Besides, the “production of IL-1β (in words)” value in data set [3] is given as “did not reduce”.

Regarding `COC1CC(OC2CCC3(C)C(CCC4(O)C3CC(OC(C)=O)C3(C)C(C(C)OC(=O)c5ccccc5)CCC43O)C2)OC(C)C1OC1CC(OC)C(OC2OC(C)C(O)C(OC)C2O)C(C)O1` [Compound 18, 12-O-acetyl-20-O-benzoyl-(20R)-5,6,17-trihydrosarcostin-3-O-β-D-6-deoxy-3-O-methyl-allopyranosyl-(1 → 4)-β-D-oleandropyranosyl-(1 → 4)-β-D-cymaropyranoside], the IC50 in data set [1] (setting [5]) and in data set [1] (setting [6]) was 66.2 µM throughout. The Emax in data set [1] (setting [4]) was less than 50%. In addition, in data set [3], the “production of IL-1β (in words)” value is recorded as “significant reduction”.

With `C[C@@H]1C[C@H]2[C@@H]3CCC4=CC(=O)C=C[C@]4(C)[C@@]3(F)[C@@H](O)C[C@]2(C)[C@@]1(O)C(=O)CO` [Dexa, dexamethasone, reference compound], in data set [1] (J774.A1, 24 h, J774.A1 macrophages stimulated with LPS (500 ng/mL) + IFN-γ (5 ng/mL), 24 h, nitrite by Griess, read-out: IC50, half maximal inhibitory concentration, NO production), the IC50 was determined as 4.8 µM. In addition, in data set [1] (J774.A1, 24 h, J774.A1 macrophages stimulated with LPS + IFN-γ, 24 h, read-out: efficacy: maximum effect (% of the maximum possible effect), inhibition of NO production), the Emax came to 51.6%.
